Data on ten molecules can be found in patent publication US9278912B2, “C13-hydroxy derivatives of oleanolic acid and methods of use thereof” (priority 2012, dated 2016).

This test concerns IFNγ-induced NO production in RAW264.7 mouse macrophages. Kind of test: Suppression of IFNγ-induced NO production (Nitric Oxide Production and Cell Viability Assay). Format: cell-based. The conditions noted are these: RAW264.7 cells, 2 h pretreatment, then IFNγ 24 h, Griess reagent, normalized to cell viability (WST-1). The procedure:
Assay results for the suppression of IFNγ-induced NO production are shown for several of the compounds of the present invention in Table 1 below. In the right-hand column of this table under the RAW264.7 heading, the results are compared to those of bardoxolone methyl (RTA 402, CDDO-Me). Details regarding this assay are provided in the Examples section below. Nitric Oxide Production and Cell Viability Assay. […] On the next day, cells were pretreated with DMSO or drug (0-200 nM dose range) for 2 hours, and then treated with recombinant mouse IFNγ (R&D Systems) for 24 hours. Nitric Oxide concentration in media was determined using the Griess reagent system (Promega). Cell viability was determined using WST-1 reagent (Roche). IC50 values were determined based on the suppression of IFNγ induced Nitric Oxide production normalized to cell viability.
A general note: Nitrite, measured by Griess reagent, commonly stands in for NO production.

By pIC50 is commonly meant the negative decadic logarithm of the IC50, by convention in mol/L.

The structures appear in SMILES notation. pIC50: −log10 of the molar value.

Turning to `COC(=O)[C@]12CCC(C)(C)C[C@H]1[C@@]1(O)C(=O)C=C3[C@@]4(C)C=C(C#N)C(=O)C(C)(C)[C@@H]4CC[C@@]3(C)[C@]1(C)CC2` [TX63421], the pIC50 is 8.64.
As to `CC(=O)OC[C@]12CCC(C)(C)C[C@H]1[C@@]1(O)C(=O)C=C3[C@@]4(C)C=C(C#N)C(=O)C(C)(C)[C@@H]4CC[C@@]3(C)[C@]1(C)CC2` [TX63499], the pIC50 is 8.68.
For the molecule `CC1(C)CC[C@]2(C(N)=O)CC[C@@]3(C)[C@]4(C)CC[C@H]5C(C)(C)C(=O)C(C#N)=C[C@]5(C)C4=CC(=O)[C@]3(O)[C@@H]2C1` [TX63530], the pIC50 is 8.85.
On to `CCCCC1O[C@]23C(=O)C=C4[C@@]5(C)C=C(C#N)C(=O)C(C)(C)[C@@H]5CC[C@@]4(C)[C@]2(C)CC[C@]12CCC(C)(C)C[C@H]23` (stereo partly shown) [TX63484], for which the pIC50 was 7.43.
Take `CC1(C)CC[C@]2(CO)CC[C@]3(C)[C@](O)([C@H](O)C=C4[C@@]5(C)C=C(C#N)C(=O)C(C)(C)[C@@H]5CC[C@]43C)[C@@H]2C1` [TX63489]: the pIC50 was 7.21.
The same measure for `CC(=O)OC[C@]12CCC(C)(C)C[C@H]1[C@@]1(O)[C@H](OC(C)=O)C=C3[C@@]4(C)C=C(C#N)C(=O)C(C)(C)[C@@H]4CC[C@@]3(C)[C@]1(C)CC2` [TX63498]: 7.62; for `CC1(C)CC[C@]2(CO)CC[C@@]3(C)[C@]4(C)CC[C@H]5C(C)(C)C(=O)C(C#N)=C[C@]5(C)C4=CC(=O)[C@]3(O)[C@@H]2C1` [TX63490]: 8.82; for `CC(C)C1O[C@]23C(=O)C=C4[C@@]5(C)C=C(C#N)C(=O)C(C)(C)[C@@H]5CC[C@@]4(C)[C@]2(C)CC[C@]12CCC(C)(C)C[C@H]23` (stereo partly shown) [TX63496]: 7.43.
On to `CCOC(=O)[C@]12CCC(C)(C)C[C@H]1[C@@]1(O)C(=O)C=C3[C@@]4(C)C=C(C#N)C(=O)C(C)(C)[C@@H]4CC[C@@]3(C)[C@]1(C)CC2` [TX63469], for which the pIC50 was 8.66.
For `CCNC(=O)[C@]12CCC(C)(C)C[C@H]1[C@@]1(O)C(=O)C=C3[C@@]4(C)C=C(C#N)C(=O)C(C)(C)[C@@H]4CC[C@@]3(C)[C@]1(C)CC2` [TX63536], the pIC50 was 8.25.
